Values quoted from earlier work, collected in paper PMC2810551 (Chemistry & biology, 2009).

Tested on: CD4+ T cells expressing the MBP Ac1-11 specific Vα2.3/Vβ8.2 TCR
Details: immunization with MBP Ac1-11; B10.PL mice; ref [6]

## Ac-ASQKRPSQRSK [MBP Ac1-11]
  activation and expansion of specific CD4+ T cells: results in activation and expansion of CD4+ T cells expressing the MBP Ac1-11 specific Vα2.3/Vβ8.2 TCR
